Measurements reported in ChEMBL document CHEMBL5154740, “Novel Aurora A and Protein Kinase C (α, β1, β2, and θ) Multitarget Inhibitors: Impact of Selenium Atoms on the Potency and Selectivity” (J Med Chem, 2022).
Active and inactive are the calls of the source. No cut-off for these calls is given here.

Columns and labels:
4T1 [1] = test: Antitumor activity against mouse 4T1 cells xenografted in BALB/c mouse assessed as tumor growth inhibition at 10 mg/kg, po administered 3 times a week for 30 days; type: functional, organism-based; conditions: time 30.0 day
4T1 [2] = test: Anti-metastasis activity in mouse 4T1 cells xenografted in BALB/c mouse assessed as lung metastases at 10 mg/kg, po administered 3 times a week for 30 days; type: functional, organism-based; conditions: time 30.0 day

SMILES: O=c1c2ccccc2[se]n1-c1nc(N[C@H]2CC[Se]C2)c2nc[nH]c2n1
- Activity (4T1 [1]): Active
- Activity (4T1 [2]): Active
